Earlier results, collected in US10314326B2, “Composition for reducing food intake” (Natures Remedies Ltd, priority 2009, dated 2019).
Read-outs that look alike come from different tables or passages of the source. No end group written: not given here.

Tests used:
[1] = literature; for reduction in food/calorie intake: pharmacological options
[2] = 14 healthy volunteers
[3] = peripheral injection, human subjects
[4] = peripheral injection, rats
[5] = approximately 20 g per day for 7 days, human volunteers

O=C(O)CC(O)(C(=O)O)C(O)C(=O)O (stereo not drawn) [HCA-SX, hydroxycitric acid]
decrease in food intake ([1]; human studies): 4%

CCN(CC)C(C)C(=O)c1ccccc1 (stereo not drawn) [diethylpropion]
reduction in food/calorie intake [1]: 11-15%

CNCCC(Oc1ccc(C(F)(F)F)cc1)c1ccccc1 (stereo not drawn) [fluoxetin]
reduction in food/calorie intake [1]: 13-16%

CC(C)CC(N(C)C)C1(c2ccc(Cl)cc2)CCC1 (stereo not drawn) [sibutramine]
reduction in food/calorie intake [1]: 12-26%

beta-glucan
food intake and appetite ratings [1]: not significantly reduced

fructooligosaccharides
food intake and appetite ratings [1]: not significantly reduced

glucagon-like peptide-1 (7-36) amide (HAEGTFTSDVSSYLEGQAAKEFIAWLVKGR-NH2; UniProt P01275 98-127, looked up) [GLP-1, anorectic gut peptide secreted by the L-cells]
motility in the antro-duodeno-jejunal region [2]: decreases
body weight [3]: decreases
food intake [3]: decreases
body weight [4]: decreases
food intake [4]: decreases

methylcellulose
food intake and appetite ratings [1]: not significantly reduced

oligofructose
serum GLP-1 levels [5]: increased
reduction in total intake ([1]; human studies): 5%

sodium alginate
reduction in energy intake ([1]; human studies): 7%
